# From patent US9156848B2, “Treating diabetes with dipeptidyl peptidase-IV inhibitors” (Merck Sharp & Dohme Corp., priority 2012, dated 2015)
# Columns and labels:
# [1] = biological target: dipeptidyl peptidase-IV enzyme (DPP-4) (Homo sapiens (Human), UniProt P27487); assay: continuous fluorometric assay with substrate Gly-Pro-AMC (DPP-4 inhibition); type: biochemical; details: soluble human DPP-4, 50 μM Gly-Pro-AMC, pH 7.5, room temperature
# Experimental: Inhibition constants are determined as follows. A continuous fluorometric assay is employed with the substrate Gly-Pro-AMC, which is cleaved by DPP-4 to release the fluorescent AMC leaving group. […] A typical reaction contains approximately 50 pM enzyme, 50 μM Gly-Pro-AMC, and buffer (100 mM HEPES, pH 7.5, 0.1 mg/ml BSA) in a total reaction volume of 100 μL. Liberation of AMC is monitored continuously in a 96-well plate fluorometer using an excitation wavelength of 360 nm and an emission wavelength of 460 nm. Under these conditions, approximately 0.8 μM AMC is produced in 30 minutes at 25 degrees C. The enzyme used in these studies was soluble (transmembrane domain and cytoplasmic extension excluded) human protein produced in a baculovirus expression system (Bac-To-Bac, Gibco BRL). […] To measure the dissociation constants for compounds, solutions of inhibitor in DMSO were added to reactions containing enzyme and substrate (final DMSO concentration is 1%). All experiments were conducted at room temperature using the standard reaction conditions described above. To determine the dissociation constants (Ki), reaction rates were fit by non-linear regression to the Michaelis-Menton equation for competitive inhibition.
# cardiac allograft = details: rats; survival doubled from day 7; cited from earlier work
# hematopoiesis = details: mouse, cyclophosphamide-induced neutropenia; cited from earlier work
# DPP-4 = DPP-4 (Homo sapiens (Human), UniProt P27487); details: cited from earlier work
# Chain of DPP-4 (P27487 39-766, species assumed): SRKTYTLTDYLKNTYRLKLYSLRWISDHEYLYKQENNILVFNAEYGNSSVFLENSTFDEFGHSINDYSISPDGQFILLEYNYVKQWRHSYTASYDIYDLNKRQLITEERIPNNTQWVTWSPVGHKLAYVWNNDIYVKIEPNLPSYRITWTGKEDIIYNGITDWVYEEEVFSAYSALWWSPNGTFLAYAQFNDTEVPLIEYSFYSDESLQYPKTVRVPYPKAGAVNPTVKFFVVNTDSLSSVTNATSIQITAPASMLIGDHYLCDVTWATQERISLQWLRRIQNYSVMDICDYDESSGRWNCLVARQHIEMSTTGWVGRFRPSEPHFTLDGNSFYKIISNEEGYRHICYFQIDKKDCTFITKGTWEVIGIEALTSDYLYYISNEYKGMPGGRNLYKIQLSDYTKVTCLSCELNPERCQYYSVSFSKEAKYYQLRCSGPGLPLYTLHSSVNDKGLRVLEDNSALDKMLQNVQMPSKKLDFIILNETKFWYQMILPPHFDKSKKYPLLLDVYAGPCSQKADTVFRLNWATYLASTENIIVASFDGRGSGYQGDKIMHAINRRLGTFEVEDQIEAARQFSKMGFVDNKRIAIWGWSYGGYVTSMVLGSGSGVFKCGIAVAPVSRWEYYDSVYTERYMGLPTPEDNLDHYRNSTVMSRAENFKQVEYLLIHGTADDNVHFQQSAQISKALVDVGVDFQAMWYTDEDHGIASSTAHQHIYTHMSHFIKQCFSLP
# Chain of dipeptidyl peptidase-IV enzyme (DPP-4) (P27487 29-766): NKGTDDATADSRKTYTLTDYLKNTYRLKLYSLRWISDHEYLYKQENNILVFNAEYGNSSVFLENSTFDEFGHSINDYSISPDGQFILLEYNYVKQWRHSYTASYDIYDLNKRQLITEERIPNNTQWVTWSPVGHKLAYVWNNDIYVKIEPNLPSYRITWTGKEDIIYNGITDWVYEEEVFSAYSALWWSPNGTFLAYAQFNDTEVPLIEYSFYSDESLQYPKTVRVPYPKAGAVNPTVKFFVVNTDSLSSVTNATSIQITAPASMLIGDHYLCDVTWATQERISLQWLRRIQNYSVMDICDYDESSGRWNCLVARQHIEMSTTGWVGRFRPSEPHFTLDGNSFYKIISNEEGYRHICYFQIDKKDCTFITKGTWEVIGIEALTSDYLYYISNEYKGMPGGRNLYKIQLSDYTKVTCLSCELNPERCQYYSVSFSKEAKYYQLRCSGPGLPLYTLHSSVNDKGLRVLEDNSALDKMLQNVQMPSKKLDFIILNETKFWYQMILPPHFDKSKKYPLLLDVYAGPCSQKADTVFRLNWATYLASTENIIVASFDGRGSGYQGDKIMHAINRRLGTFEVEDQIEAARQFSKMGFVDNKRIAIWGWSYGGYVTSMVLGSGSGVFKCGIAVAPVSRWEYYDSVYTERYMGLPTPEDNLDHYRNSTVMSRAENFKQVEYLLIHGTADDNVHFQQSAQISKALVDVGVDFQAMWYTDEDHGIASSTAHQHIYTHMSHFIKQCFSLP
Compound,IC50 [1],further results
Cc1ccc(S(=O)(=O)N=S(C)(=O)n2cc3c(n2)CN([C@H]2CO[C@H](c4cc(F)ccc4F)[C@@H](N)C2)C3)cc1 (stereo partly drawn) [Example 1],18.5 nM,–
C[C@]1(N2Cc3cn(S(C)(=O)=O)nc3C2)CO[C@H](c2cc(F)ccc2F)[C@@H](N)C1 [Example 3],37 nM,–
C[C@]1(N2Cc3cn(S(=O)(=O)NC(=O)OCc4ccccc4)nc3C2)CO[C@H](c2cc(F)ccc2F)[C@@H](N)C1 [Example 4],8.8 nM,–
"CC(C)N1CCC(c2ccccc2)(c2ccccc2)CC1 [Prodipine, Pro-Pro-diphenyl-phosphonate]",–,cardiac allograft survival (cardiac allograft): 14 day
CC(C)[C@H](N)C(=O)N1CCC[C@H]1B(O)O [Val-Boro-Pro],–,hematopoiesis (hematopoiesis): stimulated hematopoiesis
CC[C@H](C)[C@H](N)C(=O)N1CCC[C@H]1C(=O)N[C@H](C(=O)O)[C@@H](C)CC [diprotin A],–,degradation of GRF to GRF[3-44] in plasma (DPP-4): prevented
